Experimental data reported in US20260306496A1, “CDK2 INHIBITOR PYRAZOLOPYRIMIDINE COMPOUNDS” (ALEKSIA THERAPEUTICS, INC., priority 2023, published 2026).

Molecular target: CDK2/CCNE1 (Homo sapiens, UniProt P24941)
Assay: CDK2 homogeneous time-resolved fluorescence (HTRF) assay
Assay type: biochemical
Conditions: 3 nM CDK2/CCNE1, 1 mM ATP, 50 nM ULight-eIF4E-binding protein 1 (Thr37/46) peptide, 60 min at 23° C.; read-out: CDK2/CCNE IC50 <25 nM
Description: A CDK homogeneous time-resolved fluorescence (HTRF) assay was used to assess the potency of the compounds described herein.
To an untreated 384-well microtiter plate (ProxiPlate) was added 100 nL 100× test compound in DMSO and 5 μL 2×CDK enzyme in assay buffer (50 mM HEPES, 1 mM EGTA, 10 mM MgCl2, 0.01% Tween 20, 2 mM DTT). The plate was centrifuged at 800 RPM for 1 min then incubated for 20 min at 23° C. 2.5 μL per well of 4×ATP and 2.5 μL 4×ULight™-eIF4E-binding protein 1 (Thr37/46) Peptide) substrate were added to all wells. After addition, the plates were centrifuged at 800 RPM for 1 min. The plates were incubated at 23° C. for 60 min. 5 μL per well 3×EDTA solution were added to each well to stop the reaction. 2.5 μL 7×LANCE Ultra Europium-anti-phospho-eTF4E-binding protein 1 (Thr37/46 antibody) were added to each well and the plate was centrifuged for 1 min at 800 RPM. The plate was incubated for 60 min at 23° C. Fluorescence was read at 340 nm excitation and 665 nm emission on an EnVision 2105 fluorescence reader. The final concentrations of reagents in the activity assay were 3 nM CDK2/CCNE1, 1 mM ATP, 50 nM ULight™-eIF4E-binding protein 1 (Thr37/46) Peptide substrate, 1% DMSO, 10 mM EDTA, and 2 nM LANCE Ultra Europium-anti-phospho-eTF4E-binding protein 1 (Thr37/46).
Dose-response titrations were conducted by using an 11-point, three-fold serial dilution scheme typically starting at 1 μM. Signals were reported as fluorescence units at 665 nm or the ratio of fluorescence units at 665 nm/fluorescence units at 615 nm. Signals are referred to below as “Lance signals”.
Using this assay, the IC50 values of example compounds were determined.

SMILES	IC50 [nM]
CS(=O)(=O)c1ccc(Nc2ncc3cnn(C4CCC(C#N)CC4)c3n2)cc1 (single isomer, unassigned) [Compound 32, 4-(6-((4-(methylsulfonyl)phenyl)amino)-1H-pyrazolo[3,4-d]pyrimidin-1-yl)cyclohexane-1-carbonitrile]	< 25

Same assay, conditions: 3 nM CDK2/CCNE1, 1 mM ATP, 50 nM ULight-eIF4E-binding protein 1 (Thr37/46) peptide, 60 min at 23° C.; read-out: CDK2/CCNE IC50 >150 nM

SMILES	IC50 [nM]
CC(c1cccnn1)n1ncc2cnc(Nc3ccc(S(C)(=O)=O)cc3)nc21 (single isomer, unassigned) [Compound 77, N-(4-(methylsulfonyl)phenyl)-1-(1-(pyridazin-3-yl)ethyl)-1H-pyrazolo[3,4-d]pyrimidin-6-amine]	> 150
CS(=O)(=O)c1ccc(Nc2ncc3cnn(CC4CCC(N5CCC5)CC4)c3n2)cc1 (single isomer, unassigned; stereoisomer a) [Compound 60, 1-((4-(azetidin-1-yl)cyclohexyl)methyl)-N-(4-(methylsulfonyl)phenyl)-1H-pyrazolo[3,4-d]pyrimidin-6-amine (stereoisomer A)]	> 150
CS(=O)(=O)c1ccc(Nc2ncc3cnn(CC4CCC(N5CC(O)C5)CC4)c3n2)cc1 (single isomer, unassigned; stereoisomer a) [Compound 64, 1-(4-((6-((4-(methylsulfonyl)phenyl)amino)-1H-pyrazolo[3,4-d]pyrimidin-1-yl)methyl)cyclohexyl)azetidin-3-ol (stereoisomer A)]	> 150
CS(=O)(=O)c1ccc(Nc2ncc3cnn(CC4CCC(N5CC(C#N)C5)CC4)c3n2)cc1 (single isomer, unassigned; stereoisomer a) [Compound 65, 1-(4-((6-((4-(methylsulfonyl)phenyl)amino)-1H-pyrazolo[3,4-d]pyrimidin-1-yl)methyl)cyclohexyl)azetidine-3-carbonitrile (stereoisomer A)]	> 150
CS(=O)(=O)c1ccc(Nc2ncc3cnn(CC4CCC(N5CC[C@H](C#N)C5)CC4)c3n2)cc1 (single isomer, unassigned; stereoisomer a) [Compound 69]	> 150
CS(=O)(=O)c1ccc(Nc2ncc3cnn(CC4CCC(N5CC[C@@H](C#N)C5)CC4)c3n2)cc1 (single isomer, unassigned; stereoisomer a) [Compound 71]	> 150
CS(=O)(=O)c1ccc(Nc2ncc3cnn(CC4CCC(N5CC[C@@H](O)C5)CC4)c3n2)cc1 (single isomer, unassigned; stereoisomer a) [Compound 73]	> 150
CS(=O)(=O)c1ccc(Nc2ncc3cnn(CC4CCC(N5CC[C@H](O)C5)CC4)c3n2)cc1 (single isomer, unassigned; stereoisomer a) [Compound 74]	> 150

Same assay, conditions: column 25-150 nM; 3 nM CDK2/CCNE1, 1 mM ATP, 50 nM ULight-eIF4E-binding protein 1 (Thr37/46) peptide, 60 min at 23° C.; read-out: CDK2/CCNE IC50 25-150 nM

SMILES	IC50 [nM]
CS(=O)(=O)c1ccc(Nc2ncc3cnn(CC4CCC(C#N)CC4)c3n2)cc1 (single isomer, unassigned) [Compound 28, 4-((6-((4-(methylsulfonyl)phenyl)amino)-1H-pyrazolo[3,4-d]pyrimidin-1-yl)methyl)cyclohexane-1-carbonitrile]	25 to 150
CS(=O)(=O)c1ccc(Nc2ncc3cnn([C@H]4CC[C@H](O)CC4)c3n2)cc1 (single isomer, unassigned) [Compound 54]	25 to 150
CS(=O)(=O)c1ccc(Nc2ncc3cnn(-c4ccc(C#N)cc4)c3n2)cc1 (single isomer, unassigned) [Compound 68, 4-(6-((4-(methylsulfonyl)phenyl)amino)-1H-pyrazolo[3,4-d]pyrimidin-1-yl)benzonitrile]	25 to 150
CS(=O)(=O)c1ccc(Nc2ncc3cn(-c4ccc(C#N)cc4)nc3n2)cc1 (single isomer, unassigned) [Compound 83, 4-(6-((4-(methylsulfonyl)phenyl)amino)-2H-pyrazolo[3,4-d]pyrimidin-2-yl)benzonitrile]	25 to 150
CS(=O)(=O)c1ccc(Nc2ncc3cnn(CC4CCC(N5CCCC5)CC4)c3n2)cc1 (single isomer, unassigned; stereoisomer a) [Compound 58, N-(4-(methylsulfonyl)phenyl)-1-((4-(pyrrolidin-1-yl)cyclohexyl)methyl)-1H-pyrazolo[3,4-d]pyrimidin-6-amine (stereoisomer A)]	25 to 150
